Reference: patent US4665086A, “Method for minimizing disturbances in circadian rhythms of bodily performance and function” (priority 1983, dated 1987)
Values joined by “and” are separate entries in the source; they are usually repeats but may differ in a detail not shown here. Equal values may be shown once. “Also recorded” adds a separate entry of the source.

Experiments:
[1] = tested on: circadian rhythms in humans (jet lag, body temperature rhythm); test: Example 4: Subject A, round-the-world flight, melatonin with rectal temperature record (Vitalog PMS8); type: in vivo, human
From the text: Subject A Flight from Melbourne→Geneva→London→Chapel Hill, N.C.→Melbourne 18.9.83-30.9.83. […] During this experiment use was made of a portable Vitalog PMS8 mini computer to record the temperature of Subject A. The Vitalog PMS8 recorded body temperature at ten minute intervals utilizing a rectal temperature probe. […] A discussion of the temperature record follows. During this flight Subject A wore the Vitalog PMS8 mini computer and rectal probe for the continuous recording of their deep body temperature. The equipment malfunctioned after 4 days due to premature battery failure. From 18.9.83- 23.9.83 Subject A kept a detailed daily log of quality and nature of sleep, modd, and alertness according to a technique developed by NASA. […] The dark, dotted regions represent dark periods. The time scale is for Melbourne time no matter where Subject A is identified by one of the letters A, B, C, D or E. Recordings of dark periods B, C and D have been repeated to give continuity to the record. The black arrows identify the times of administration of melatonin.

depressed patients = settings: cited from earlier work
[2] = Example 9: absorption and clearance of orally administered melatonin, plasma radioimmunoassay; type: in vivo, human
From the text: This was two hours after a light breakfast of apple juice, cereal and tea. Blood sampling was continued until 1400 hrs. The blood was immediately centrifuged, and the plasma frozen until assayed for melatonin using a specific radioimmunoassay developed in the inventors' laboratory as a modification of the procedure originally described by D. J. Kennaway et al. (Endocrinology 110, 1766, 1982.) The results are shown in the accompanying FIG. 2.

[3] = tested on: free-running circadian activity rhythm of rats; settings: pharmacological doses, only when given at onset of spontaneous activity; cited from earlier work
[4] = tested on: hamsters, sheep, ferrets and deer; settings: physiological doses by mouth, implant or injection; cited from earlier work
[5] = tested on: circadian rhythms in humans (jet lag); test: Example 8: Subject E, flight London-Melbourne; type: in vivo, human; settings: 5 mg at bedtime; for symptoms of jet-lag: Easterly flight London-Melbourne
From the text: Subject E Flight from London→Melbourne→London 30.12.83-16.1.84

[6] = tested on: body temperature rhythm in humans (shift work); test: Example 10: Subject F, simulated rapid rotating shift work roster, double blind melatonin vs placebo, rectal temperature; type: in vivo, human; settings: for sleep induction: from diary descriptions
Experimental: The subject was a […] psychology lecturer who had never taken Melatonin before. In order to evaluate the effects of Melatonin on adaptation to rotating shift work conditions the subject undertook three, eight hour phase advances in their sleep-wake/work-rest schedule at six day intervals. Melatonin was administered under double blind conditions on the first phase advance and placebo taken on the second. […] This entrainment was not a secondary consequence of sleep induction. The data can be taken as evidence for Melatonin as an effective chronobiotic for adaptation to shiftwork.
The experiment was designed to incorporate the salient features of a rapidly rotating shift-work schedule combined with aspects of lighting changes encountered on destination arrival after intercontinental jet flight. […] The experimental protocol differed from that normally found in shift work in that the subject had to spend the dark period in bed in an isolation unit irrespective of whether sleepiness was felt or not; whereas, no sleep was allowed during the light period no matter how tired the subject felt. During the light period the subject was free to leave the isolation unit to engage in work or leisure related activities.
The experiment was carried out over the long vacation, the isolated unit being situated half below ground under one of the residential colleges on La Trobe University Campus. The area was, therefore, fairly well buffered against external noise and a ventilation exhaust fan was continuously running, which aided extraneous noise reduction. Windows located high up on the walls of the kitchen alcove and shower/toilet rooms were blacked out. The main sleeping-living room was illuminated by two fluorescent tubes (40 watt) while the alcove and bathroom areas had one, 40 watt, fluorescent light in each. All lights were controlled by a single time clock set to give an LD 16:8 cycle, lights on at 0730 hours during baseline. A bedside lamp was used for reading during the light period. No lighting was allowed during the dark period for any reason. Therefore, events such as quenching of thirst and urination had to take place in total darkness. Temperature of the isolation area was maintained within the range 20°-22° C. throughout the experiment. During stage A and pre-baseline breakfast was ingested between 0800 and 0900, lunch between 1300 and 1400, and dinner between 1800 and 2000. During stages B and C meals and intermeal intervals were scheduled for equivalent times (relative to lights on) to those during stage A.
During stages B and C the subject was instructed to take one capsule just prior to lights off. If still awake one hour later, the subject was to take a second capsule. Similar instructions applied to the second and third hours after lights-off but no capsule was to be taken during the last four hours of darkness i.e. maximum number of capsules to be taken was four. Capsules were refrigerated and had to be taken in complete darkness once lights were off. A double blind procedure was employed with stage B being drug (Melatonin, Sigma, 5mg/capsule) and stage C being placebo (sucrose filled capsule). No capsules were taken on the final dark period at the end of each stage i.e. days 10 and 16.
Rectal temperature was sampled every 12 minutes using a Vitalog PMS 8 portable microcomputer. A diary of life events was kept. These included details of sleep, work, leisure, meals, beverages, urination and defecation. […]

[7] = tested on: circadian rhythms in humans (jet lag); test: Example 5: Subject B, double-blind trial, Capsule A (melatonin) vs Capsule B (placebo), flight Melbourne-Geneva-Rotterdam-Melbourne; type: in vivo, human
From the text: Subject B Flight from Melbourne→Geneva→Rotterdam→Melbourne 30.1.84-19.2.84
This was a double-blind trial. The subject, a Clinical Professor who had never taken Melatonin before, was given two bottles labelled A and B containing identical-looking gelatin capsules, and told to take one capsule A on going to bed, and again if awaking in the middle of the night, for the first 4 days after arrival in Geneva. They were told to take one capsule B according to the same schedule after return to Melbourne, and to record the quality of each night's sleep and feelings during the daytime. Capsule A contained 5 mg Melatonin. and capsule B contained a placebo (sucrose). Only after the subject had completed their written report 4 days after returning to Melbourne were they told which pills contained Melatonin and which contained placebo.

human subjects = settings: pharmacological doses; cited from earlier work
[8] = Capsule A = 5 mg Melatonin, Geneva

COc1ccc2[nH]cc(CCNC(C)=O)c2c1 [melatonin, 5-methoxy-N-acetyltryptamine]
feeling on awakening / during day after melatonin sleep (diary) ([1]; 5 mg oral, listed as Melatonin): feeling excellent; also recorded: feeling drowsy, slight headache; also recorded: feeling fine; also recorded: feeling good; also recorded: Felt fine; also recorded: tired and sleepy and cold; also recorded: Felt very sleepy, but this soon passed
sleep after taking melatonin (diary) ([1]; 5 mg oral, listed as Melatonin): Fell asleep at once; also recorded: Did not fall asleep; also recorded: half an hour; also recorded: slept soundly
time to fall asleep after taking melatonin (diary) ([1]; 5 mg oral, listed as Melatonin): 30 min and 25 min
subjective symptoms of jet-lag (comment) ([1]; 5 mg oral, round-the-world flight in Westerly direction): no subjective symptoms of jet-lag
time of maximal body temperatures ([1]; after arrival in Geneva, rectal probe): around midnight Melbourne time
re-entrainment of body temperature rhythm ([1]; rectal temperature, after arrival in Geneva, FIG. 1): re-entrained extremely rapidly to Geneva time
time of lowest body temperatures ([1]; third and fourth sleep periods in Geneva, rectal probe): around mid-day Melbourne time
effect on symptoms of depressed patients (depressed patients): exacerbation of symptoms including florid psychotic episodes
plasma melatonin concentration at which subjective feelings of drowsiness were experienced ([2]; Subject A, 5 mg oral): exceeded 2 ng/ml
subjective effects coincident with maximal plasma levels ([2]; Subject A, 5 mg oral): yawning and sleepiness
Tmax ([2]; human, plasma, po, 5 mg, Subject A, 5 mg oral in gelatin capsule, read-out: time after ingestion to peak plasma concentration (converted)): 1.1 h
plasma values 260 minutes after ingestion relative to normal nocturnal values of around 100 pg/ml plasma ([2]; in vivo, po): 10 times higher
entrainment of free-running circadian activity rhythm [3]: could entrain the free-running circadian activity rhythm of rats
timing of the annual breeding season [4]: capable of altering the timing of the annual breeding season
sleep after taking melatonin [5]: slept well
symptoms of jet-lag [5]: no signs of jet-lag on the 3rd day
symptoms of jet-lag ([5]; listed as Melatonin): no symptoms of jet-lag; also recorded: appeared to prevent all symptoms of jet-lag
sleep after taking melatonin ([5]; listed as Melatonin): excellent night's sleep
time to fall asleep after lights out (diary, Table 2) ([6]; Subject F, 22.1.84, first complete day after first phase shift, capsule taken 1515): approx. 30 minutes
time by which temperature rhythm was re-established and in phase with the new light-dark cycle ([6]; Subject F, first 8 hour advance of darkness): by the third complete day after the phase shift (day 8)
entrainment of body (rectal) temperature rhythm ([6]; Subject F, first 8 hour phase advance, 5 mg/capsule before lights off, double blind, contrast to placebo): good and accelerated entrainment of the body temperature rhythm; also recorded: phase shifted the rectal temperature rhythm
sleep induction ([6]; Subject F): did not have the same potent sleep induction as reported by other subjects after intercontinental flight
sleep induction ([6]; Subject F, listed as Melatonin): aided sleep induction
time after entering new time zone until able to sleep at period coinciding with early morning in zone of departure [7]: ≤ 24 h
subject's blinded conclusion on effect of capsule ([7]; 5 mg melatonin per capsule, first 4 days in Geneva, double-blind): making them less tired and more alert in the meetings at WHO in Geneva
feeling during day (diary) [7, 8]: felt tired in morning
sleep after taking capsule (diary) [7, 8]: fell asleep again; also recorded: slept well; also recorded: sleep well
effect on sleep (human subjects): induces drowsiness and sleep
